“Also recorded” adds a separate entry of the source.
What was measured:
contaminating LAB = assay: Lactic and acetic acid levels in laboratory-scale ethanol fermentation; type: cell-based
From the text: (§1) GP15cin described herein were produced by a L. plantarum strain, which was isolated from the indigenous LAB populations present during commercial ethanol fermentation. GP15cin can act towards species and/or strains of similar indigenous LAB populations and thus can be used as an effective control for contaminating LAB. […] Either fermentor or mash cooler mash samples were collected from 6 different commercial ethanol plants on 13 different days from 2012 to 2014. Results of 15 independent tests are shown. […] It is likely that the effects on controlling contaminating bacteria and acids will be even more significant if a higher dose of […] is used. The presented results highlight the feasibility of GP15cin application for control of unwanted bacteria in ethanol and other biofuel industries.

[1] = test system: Lactobacillus fermentum strain 0315-25; assay: Batch culture growth inhibition, bacteriocin and/or phage, growth monitored 24 h; type: cell-based
Description: Bacteriocin alone, bacteriophage alone, and bacteriocin combined with phage were tested against Lactobacillus in batch culture systems. To be specific, logarithmic growth phase cultures of Lactobacillus fermentum strain 0315-25 (OD600 being 0.1) were treated either with single agent at different doses, such as bacteriocin GP15cin alone at different doses (0.1%, 1%, and 10%, v/v), or a phage designated herein as LferInf alone at different MOIs (0.1, 1, and 10), or two agents combined together at different doses, such as 0.1% GP15cin plus LferInf at MOI of 0.1, 0.1% GP15cin plus phage LferInf at MOI of 1, 1% GP15cin plus LferInf at MOI of 0.1, and 1% GP15cin plus phage LferInf at MOI of 1. Culture without any treatment was served as control. LferInf is a bacteriophage isolated from wastewater and found to be effective against a broad host range of Lactobacillus and described in more detail below. The growth of bacteria was monitored for 24 h, and the treatment effects were compared.

[2] = test system: production host Lactobacillus plantarum GP15; assay: Activity against own production host; type: cell-based
From the text: As noted above, GP-15cin may be applied alone or in combination with other bacteriocin and/or bacteriophage virulent for unwanted bacteria in the same system. Bacteriocin producing hosts are immune to the bacteriocins produced by themselves. GP-15cin is therefore not active against its own production host, GP15cin. […] Therefore, it is desirable to combine GP-15cin with a different bacteriocin in a cocktail that will kill the bacteria insensitive to GP15cin. Additionally, GP-15cin may be combined with other antimicrobial agents to broaden the scope of effectiveness against the range of unwanted bacteria that are targeted. For example, the combination of bacteriocin and bacteriophage (phage) ensures a broader inhibition spectrum and more efficient control of the bacteria contamination. Phage targeting these non-sensitive strains can be isolated, and be combined with the bacteriocin for a complete control of contaminating bacteria.

[3] = test system: LAB isolates from commercial ethanol plants (Lactobacillus, Lactococcus, Weissella, Leuconostoc, Pediococcus, Enterococcus, Streptococcus); assay: Inhibitory activity spectrum, culture supernatant spotted on indicator bacterial lawns (LAB isolates); type: cell-based, lactic acid bacteria; conditions: multiple genera
Description: (§2) In the discovery of the unique broad spectrum bacteriocin of this invention, indigenous LAB were isolated and purified from the fermentation mash of the commercial ethanol fermentation plants. The identities of the isolates were determined to the species level based on their 16s rDNA sequences. The capability of the isolated LAB strains to produce antimicrobial compounds was identified. Culture supernatants of the strains to be tested were spotted onto individual indicator bacterial culture lawns, which were prepared using a variety of LAB strains of different genera. After incubation, growth inhibition of the indicator bacteria was seen as a clear zone at and around the spotting position. Any positive activity of bacterial growth inhibition from the tested culture supernatant was confirmed again in the same manner, and the inhibitory activity spectrum of the antimicrobial compound is determined. […]
(§3) The inhibitory activity spectrum of GP15cin against different strains was determined. The active concentration range and the minimum inhibition concentration of the bacteriocin are determined using different indicator strains. The activity levels of the bacteriocin present in the raw bacterial culture supernatants and/or in partially purified mixtures were also determined. […]

[4] = test system: indigenous contaminating bacteria in ethanol fermentation mash; assay: Reduction of indigenous contaminating bacterial level in fermentation mash from commercial ethanol plants; type: cell-based; conditions: crude form
Description: The inhibitory activity spectrum of GP15cin against different strains was determined. The active concentration range and the minimum inhibition concentration of the bacteriocin are determined using different indicator strains. The activity levels of the bacteriocin present in the raw bacterial culture supernatants and/or in partially purified mixtures were also determined. […] FIG. 2 to FIG. 11 show the effectiveness of GP15cin in reducing the total levels of indigenous bacteria presented in fermentation mash from different commercial ethanol plants. The exact identities of the indigenous bacteria population in different plants are unknown and are likely highly diverse.
as §1, with “The presented results highlight the feasibility of GP15cin application for control of unwanted bacteria in ethanol and other biofuel industries.” left out

[5] = Bacteriocin stability at different temperatures and pH values; type: physicochemical
Description: Either using crude, partially or completely purified form, the chemical characteristics of the bacteriocins can be determined. The determined characteristics include their sensitivities to different enzymes, stability at different temperatures and pH values, etc. Sensitivity of the bacteriocin to proteolytic and lipolytic enzymes, such as trypsin, pepsin, pronase, lipase, etc, was tested. The proteinaceus nature of GP15cin was confirmed. […] The same bacteriocin has optimal activity in the pH range of 4-10.

[6] = test system: non-LAB isolates (strains of Staphylococcus, Enterobacter, Bacillus, Clostridium); assay: Inhibitory activity spectrum, culture supernatant spotted on indicator bacterial lawns (non-LAB isolates); type: cell-based
Description: as §2, §3

With plantaricin W [GP15cin] the “lactic acid and acetic acid levels produced by contaminating LAB” value (contaminating LAB) was “significantly reduced”, the “growth of L. fermentum” value ([1]; GP15cin alone 0.1% v/v) was “all treatment, except GP15cin used at 0.1%, suppressed the growth” and the “growth of L. fermentum” value ([1]; GP15cin alone 1% v/v) was “suppressed the growth”. The “growth of L. fermentum” value ([1]; GP15cin alone 10% v/v) was “suppressed the growth”, the “activity against own production host” value [2] was “not active” and the “killing activity against LAB isolates” value [3] was “broad range killing activity; also recorded: extremely broad killing spectrum”. For the same substance, the “time in which the reduction effect was seen” value [4] was ≥ 2 h, the “reduction of indigenous contaminating bacteria levels” value ([4]; mash samples from 6 plants, 15 independent tests) was “consistent reduction effects seen in all tests; also recorded: reduced indigenous contaminating bacteria levels in all mash samples” and the “pH range of optimal activity” value [5] was 4-10 pH. The “loss of activity (heat resistance)” value ([5]; after 2 hours at 120° C.) was “not a complete loss of activity”, the loss of activity ([5]; pH 12) was “complete loss of activity” and the reduction in activity ([5]; pH values of 1, 2, 3, and 11) was 50%. For the same substance, the reduction in activity ([5]; temperature of 120° C.) was 87.5%, the reduction in activity ([5]; temperatures of 65-100° C.) was 50% and the “killing activity against non-LAB isolates” value [6] was “showed killing activity”.

— US20180014546A1, “Broad Spectrum Bacteriocin for Control of Unwanted Bacteria” (priority 2013, published 2018)
